Experimental data: patent US11419834B2, “Methods for treating diseases or infections caused by or associated with H. pylori using a halogenated salicylanilide” (Rhode Island Hospital, priority 2019, dated 2022)

Experiments:
H. pylori bacteria = experiment: Scanning electron microscopy of morphology; format: cell-based, Helicobacter pylori; conditions: 2 hours
[1] = test system: H. pylori cells (strain 60190); experiment: Motility assay in soft agar; format: cell-based, Helicobacter pylori; conditions: for H. pylori motility (swarming) versus concentration: niclosamide from 0.10 to 0.20 μg/mL (75-200 ng/mL in soft agar)
[2] = test system: H. pylori (strain 60190) adhered to AGS cells; experiment: Adhesion of H. pylori to AGS cells; format: cell-based, Helicobacter pylori; conditions: niclosamide 2×MIC, 20 hours, MOI=100
Protocol: (§1) The AGS (Gastric adenocarcinoma cell lines) cell line was used to examine inhibition of adhesion and invasion of H. pylori (strain 60190) by niclosamide, as described by Schmitt et al. (Front Cell Infect Microbiol. 2013; 3:93). The AGS cells were grown in Dulbecco's Modified Eagle Medium (DMEM, ex. Gibco), supplemented with 10% fetal bovine serum (Gibco) and 1% penicillin/streptomycin (Gibco) and maintained at 37° C. in 5% C02. Then, 5×10^5 cells in antibiotic and serum-free DMEM were seeded in 6-well plates 24 hours prior to infection. H. pylori bacteria at a multiplicity of infection (MOI)=100 were added and allowed to adhere to the surface of the AGS cells. Planktonic bacteria were removed after 2 hours and DMEM with niclosamide (2×MIC) was then added to the wells containing the AGS. The mammalian cells were lysed by 0.1% saponin after 20 hours of incubation and the adhered bacteria were then serially diluted, plated in Brucella agar supplemented with 10% FBS, and incubated as described above. A control arm of DMSO and a comparator using amoxicillin at a concentration of 0.1 μg/mL (10×MIC) was also assessed. […]

[3] = test system: H. pylori bacteria (strain 60190); experiment: Time to kill assay; format: cell-based, Helicobacter pylori; conditions: 4×MIC (1 μg/mL); 10^9 cells/mL
Protocol: Niclosamide was therefore tested time to kill assays were used to confirm the killing properties of niclosamide against H. pylori. Agar grown H. pylori bacteria (strain 60190) were suspended in fresh Mueller Hinton Broth (MHB) with 10% Fetal bovine serum (FBS) to a density of 10^9 cells/mL and placed into 10 mL tubes (BD Biosciences). […] Aliquots were periodically drawn from the tubes, serially diluted and plated onto Brucella agar (BD Biosciences) supplemented with 10% FBS. CFUs were counted after a 3-day incubation and assays were carried out in duplicate. […] Of note, clarithromycin, a commonly prescribed antibiotic for H. pylori treatment, is also bacteriostatic (De Francesco et al. World journal of gastrointestinal pathophysiology 2, 35 (2011)).

[4] = test system: H. pylori bacteria (strain 60190); experiment: Multi-step mutation frequency (serial passage resistance study); format: cell-based, Helicobacter pylori
Protocol: To determine whether H. pylori can develop resistance against niclosamide, bacterial cells were suspended in MHB with 10% FBS at OD600=0.06 in the presence of serially diluted niclosamide and incubated, as described in the antibiotic susceptibility assays sub-section. The standard antibiotics amoxicillin and clarithromycin were used as controls. From the highest drug concentration allowing visible growth at sub-MIC concentration, aliquots were diluted (1:40) into fresh medium. These were used to inoculate the second set of serial drug dilutions as described by Dalhoff et al. (Clin Infect Ds. 2001 Mar. 15; 32 Suppl, 1:S16-22). After a 3-day incubation, H. pylori bacteria (strain 60190) were passaged sequentially over 30 days and the OD was recorded.

H. pylori infection = experiment: Galleria mellonella in vivo infection model; conditions: 25 mg/kg, injected 2 hours after H. pylori inoculation
Protocol: Assays were performed as described by Giannouli et al. (BMC Microbiol. 2014 Aug. 27; 14:228), an alternative model host for the evaluation of antimicrobial agents against H. pylori infection. Twelve randomly selected G. mellonella larvae (Vanderhorst, Inc., St. Mary's, OH, USA) between 300-350 mg were used for each group in the experiment. H. pylori cells were washed with PBS and diluted to OD600 nm=0.3, before inoculation into G. mellonella larvae. A 10 μL inoculum was injected into the last left proleg using a 10 μL Hamilton syringe. After 2 hours, compounds were administered at into the last right proleg and the wax moths were incubate at 37° C. Niclosamide was administered at a concentration of 25 mg/kg. Clarithromycin administered at a concentration of 10 mg/kg was used as a comparator. Three control groups were included (1) injected with PBS only; (2) inoculated with H. pylori but treated with sham injections; and (3) no manipulation. G. mellonella survival was evaluated up to 120 hours. The surviving larvae were monitored every 24 hours and were considered dead if they were unresponsive to external stimuli (touch). Killing curves and differences in survival were analysed by the Kaplan-Meier method using GraphPad Prism version 6.04 (GraphPad Software, La Jolla, Calif., USA). Statistical analysis (Kruskal-Wallis test) was carried out using the same program.

[5] = test system: AGS cells invaded by H. pylori; experiment: Invasion, gentamicin protection assay; format: cell-based, Helicobacter pylori; conditions: 2×MIC, 0.5 μg/mL, 20 hours, AGS cell lines
Protocol: as §1

Structure (SMILES): O=C(Nc1ccc([N+](=O)[O-])cc1Cl)c1cc(Cl)ccc1O [Niclosamide, niclosamide]
- morphology (helical shape) by SEM (H. pylori bacteria; 1× MIC): shortened
- morphology by SEM (H. pylori bacteria; 4× and 8× MIC): Cocco-bacillary
- effect on bacterial flagella by SEM (H. pylori bacteria; niclosamide treatment): flagellar deformation
- H. pylori motility (swarming) versus concentration [1]: impeded H. Pylon swarming movement in a dose-dependent manner
- H. pylori motility (swarming) versus concentration ([1]; listed as niclosamide): decreased in a dose-dependent manner
- H. pylori motility ([1]; sub-MIC (0.2 μg/mL)): abated
- reduction of CFU/mL counts of adhered bacteria [2]: 3 log10
- killing kinetics (bacteriostatic or bactericidal) [3]: bacteriostatic
- development of H. pylori resistance ([4]; 30 day resistance studies): no H. pylori resistance to niclosamide developed
- change in MIC through at least 10 passages ([4]; at least 10 passages): remained constant
- increase in MIC during continuous passage ([4]; passaged sequentially over 30 days): remained unchanged
- survival of wax-moth larvae up to 120 hours (H. pylori infection): About 60%
- reduction of intracellular CFU [5]: 3 log10 CFU
